These results are taken from PubChem BioAssay (NCI).

Test systems include HCC-2998 colon; OVCAR-8 ovarian; SNB-75 CNS; OVCAR-3 ovarian; NCI/ADR-RES ovarian; SF-539 CNS; OVCAR-4 ovarian; MDA-MB-435; CCRF-CEM leukemia; DU-145 prostate.
Holding throughout (test): NCI-60 cell line screen, 48 h

Values joined by “and” are separate entries in the source; they are usually repeats but may differ in a detail not shown here. Equal values may be shown once.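 Results reflect a 48-hour exposure of cells in 96-well plates to compound at five concentrations. GI50 is the concentration that inhibits growth by half. Definition used: TGI = concentration required for complete inhibition of growth.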 A value given as a limit tells only on which side of the number the result lay.

Turning to `CCOC(=O)c1c(C)c2c(n1C)CSc1cc(S(=O)(=O)c3ccccc3)c(=O)[nH]c1-2`, the GI50 in the assay with HCC-2998 colon was 35.2 µM; in the assay with OVCAR-8 ovarian it was 36.7 µM; in the assay on SNB-75 CNS, 42.7 µM; in the assay with OVCAR-3 ovarian it was 17.1 µM; with NCI/ADR-RES ovarian, 22.6 µM; in the assay on SF-539 CNS, 24.5 µM. Besides, the GI50 in the assay on OVCAR-4 ovarian was 27.8 µM; in the assay on MDA-MB-435, 30.8 µM; with CCRF-CEM leukemia, 27.5 µM; with DU-145 prostate, 23.1 µM. Besides, the TGI in the assay on HCC-2998 colon is > 100 µM; in the assay with OVCAR-8 ovarian, > 100 µM; in the assay on SNB-75 CNS it was > 100 µM; in the assay with OVCAR-3 ovarian, 43.6 µM; with NCI/ADR-RES ovarian it was > 100 µM; in the assay on SF-539 CNS it was > 100 µM. For the same compound, the TGI in the assay with OVCAR-4 ovarian, in the assay with MDA-MB-435, with CCRF-CEM leukemia and in the assay with DU-145 prostate was > 100 µM in each case.
As to `Cc1oc2c(c1C(=O)c1ccccc1)C(=O)c1ccccc1C2=O`, the TGI is 29.1 µM with HCC-2998 colon; 18.6 µM with OVCAR-8 ovarian; 13.6 µM in the assay with SNB-75 CNS; 6.22 µM with OVCAR-3 ovarian; 20.7 µM with NCI/ADR-RES ovarian; 24.7 µM in the assay with SF-539 CNS. Moreover, the TGI with OVCAR-4 ovarian was 9.95 µM; in the assay on MDA-MB-435 it was 2.97 µM; in the assay with CCRF-CEM leukemia it was 5.76 µM; in the assay with DU-145 prostate, 24.6 µM.
`CC/C(=C(\c1ccc(O)cc1)c1ccc(OCCNC)cc1)c1ccccc1`: the GI50 was 1.8 µM and 1.78 µM and 1.88 µM in the assay with HCC-2998 colon; 2.6 µM and 2.18 µM and 2.4 µM in the assay with OVCAR-8 ovarian; 2.15 µM and 1.96 µM and 1.32 µM with SNB-75 CNS; 2.09 µM and 1.72 µM and 1.97 µM in the assay on OVCAR-3 ovarian; 2.6 µM and 2.55 µM and 2.5 µM with NCI/ADR-RES ovarian; 1.74 µM and 1.7 µM and 1.59 µM in the assay with SF-539 CNS. Besides, the GI50 in the assay on OVCAR-4 ovarian is 4.62 µM and 4.21 µM; in the assay with MDA-MB-435, 1.51 µM and 1.57 µM and 1.58 µM; in the assay with CCRF-CEM leukemia, 2.96 µM and 2.56 µM and 2.75 µM; in the assay with DU-145 prostate, 2.15 µM and 1.71 µM and 2.33 µM. Moreover, the TGI in the assay with HCC-2998 colon was 3.28 µM and 3.23 µM and 3.62 µM; in the assay on OVCAR-8 ovarian, 6.66 µM and 5.28 µM and 5.78 µM; in the assay on SNB-75 CNS it was 7.39 µM and 6.81 µM and 2.76 µM; in the assay on OVCAR-3 ovarian it was 4.11 µM and 3.16 µM and 3.9 µM; in the assay with NCI/ADR-RES ovarian, 6.83 µM and 7.06 µM and 6.81 µM; with SF-539 CNS it was 3.15 µM and 3.09 µM and 3.01 µM. Moreover, the TGI in the assay with OVCAR-4 ovarian is 18.5 µM and 15 µM; in the assay with MDA-MB-435, 3.04 µM and 3.07 µM and 3.02 µM; with CCRF-CEM leukemia, 11 µM and 8.6 µM and 7.58 µM; in the assay with DU-145 prostate it was 4.36 µM and 3.46 µM and 5.25 µM.
`O=S(=O)(Nc1ccc(Cl)c(C(F)(F)F)c1)c1ccc(-c2cnc(C3CC3)o2)cc1`: the GI50 is 1.09 µM in the assay with HCC-2998 colon; 1.54 µM with OVCAR-8 ovarian; 0.125 µM in the assay on SNB-75 CNS; 0.0393 µM in the assay on OVCAR-3 ovarian; 0.163 µM in the assay on NCI/ADR-RES ovarian; 0.452 µM in the assay on SF-539 CNS. For the same compound, the GI50 is 1.63 µM in the assay with OVCAR-4 ovarian, 0.0658 µM with MDA-MB-435, 0.285 µM in the assay with CCRF-CEM leukemia and 1.28 µM in the assay with DU-145 prostate. The TGI was 3.31 µM in the assay on HCC-2998 colon; > 36.2 µM with OVCAR-8 ovarian; 1.72 µM in the assay on SNB-75 CNS; 1.9 µM in the assay with OVCAR-3 ovarian; 2.43 µM with NCI/ADR-RES ovarian; 2.16 µM with SF-539 CNS. Further, the TGI in the assay with OVCAR-4 ovarian was 9.75 µM; in the assay on MDA-MB-435, 0.606 µM; in the assay with CCRF-CEM leukemia, > 25.1 µM; with DU-145 prostate, 10.6 µM.
In the case of `CS(=O)(=O)c1ccc(C(F)(F)F)cc1NC(=O)Nc1cnc(Oc2ccc(-c3cc(Cl)cnc3N)cc2)nc1`, the GI50 is 2.79 µM in the assay with HCC-2998 colon; 2.86 µM with OVCAR-8 ovarian; 1.11 µM in the assay with SNB-75 CNS; 2.08 µM in the assay with OVCAR-3 ovarian; 2.92 µM in the assay on NCI/ADR-RES ovarian; 1.94 µM with SF-539 CNS. Besides, the GI50 was 2.9 µM with OVCAR-4 ovarian, 2.23 µM with MDA-MB-435, 3.22 µM in the assay on CCRF-CEM leukemia and 3.21 µM in the assay on DU-145 prostate. Moreover, the TGI in the assay with HCC-2998 colon is 8.72 µM; with OVCAR-8 ovarian, > 29 µM; in the assay with SNB-75 CNS, 11.5 µM; with OVCAR-3 ovarian, 4.67 µM; in the assay with NCI/ADR-RES ovarian, > 31 µM; in the assay with SF-539 CNS, 4.96 µM. Besides, the TGI in the assay on OVCAR-4 ovarian was 12.4 µM; in the assay on MDA-MB-435 it was 5.79 µM; in the assay on CCRF-CEM leukemia, > 100 µM; in the assay on DU-145 prostate it was > 54.2 µM.
Take `COc1cc(/C=C2\C(=O)N(c3c(Cl)cccc3Cl)c3ccccc32)cc(OC)c1O`: the GI50 in the assay with HCC-2998 colon is 3.3 µM; with OVCAR-8 ovarian, 0.442 µM; in the assay with SNB-75 CNS, 1.03 µM; with OVCAR-3 ovarian it was 0.905 µM; in the assay with NCI/ADR-RES ovarian, 0.793 µM; with SF-539 CNS, 0.531 µM. The GI50 in the assay on OVCAR-4 ovarian was 1.69 µM; with MDA-MB-435, 0.626 µM; in the assay with CCRF-CEM leukemia, 0.555 µM; in the assay with DU-145 prostate it was 0.663 µM. Moreover, the TGI with HCC-2998 colon turned out to be 17.7 µM; with OVCAR-8 ovarian, 19.8 µM; in the assay with SNB-75 CNS, 17 µM; in the assay on OVCAR-3 ovarian it was 7.24 µM; in the assay on NCI/ADR-RES ovarian it was 13.5 µM; with SF-539 CNS, 17.3 µM. In addition, the TGI in the assay on OVCAR-4 ovarian amounted to 12.1 µM; with MDA-MB-435 it was 15.4 µM; in the assay with CCRF-CEM leukemia, 19.9 µM; in the assay on DU-145 prostate, 6.13 µM.
